Test results reported in patent US20040091527A1, “Method of increasing the bioavailability and tissue penetration of azithromycin” (Pfizer Inc, priority 2000, published 2004).
Entries after “also recorded” stand apart in the source; their conditions may differ.

What was measured:
[1] = Effect of nelfinavir on the pharmacokinetics of a single oral dose of azithromycin (crossover study); details: co-administration with nelfinavir vs azithromycin alone
Experimental: (§1) Healthy volunteers received nelfinavir for 11 days. On Day 9 a single dose of azithromycin was administered. Each subject also received a single control dose of 1200 mg azithromycin either two weeks before the start of a nelfinavir treatment regimen or three weeks after a nelfinavir treatment regimen.
(§2) Nelfinavir was administered as 3 commercial 250 mg tablets, 3 times per day (morning dose at approximately 7 am; afternoon dose at approximately 3 pm; evening dose at approximately 10 pm) with food for 11 days. On day 9, azithromycin (1200 mg) was dosed as 2 600 mg commercial tablets at the same time as the morning dose of nelfinavir. On day 9 the subjects, who were previously fasted for at least 8 hr, consumed a standard breakfast consisting of cereal and/or toast with butter and jelly, and milk. Immediately following the standard breakfast, the subjects consumed 750 mg nelfinavir and 1200 mg azithromycin, with 120 ml water. On the day on which azithromycin alone was dosed, 2 600 mg commercial tablets were dosed with 120 ml water, immediately following the standard breakfast.
(§3) Serum samples were assayed for azithromycin utilizing LC/MS/MS. […] Concentrations below the lower limits of quantification were utilized as 0.00 μg/ml in the calculations.
(§4) Maximum observed azithromycin concentrations (Cmax) were determined by inspection of the data. Tmax was defined as the time of first occurrence of Cmax. […] Area under the serum concentration versus time curves (AUClast) were calculated for the interval of pre-dose to the last time at which concentrations of azithromycin were measurable. Total exposure was estimated as AUC for the interval of pre-dose to infinity. AUC=AUClast+C*last/kei, where C*last is the concentration estimated from the aforementioned regression at the time of the last quantifiable concentration of drug.
(§5) Geometric mean values of Cmax, AUC, Cmax ratios, and AUC ratios were determined. Arithmetic means of other parameters were determined.

[2] = dog, intravenous radiolabeled dose; cited from earlier work
[3] = in vivo; cited from earlier work
[4] = in vivo; cited from earlier work; remark: listed apart in the source
[5] = test system: CACO-2 (colon carcinoma) cells; details: cultured CACO-2 cells; cited from earlier work
[6] = humans, no p-gp inhibitor; cited from earlier work
[7] = test system: Caco-2 cell monolayers; test: Azithromycin transport across Caco-2 cell monolayers, with and without P-glycoprotein inhibitors; type: in vitro ADME
Experimental: Caco-2 cell monolayers were grown on permeable transwell-col filter supports (24.5 mm diameter, 0.45 μm pore size) and used in these studies at day 21-24. 2 mls of 0.4 μM ^14C Azithromycin in Hank's balanced salt solution (HBSS) was added to the donor chamber and 2 mls of HBSS was added to the acceptor chamber. An impermeable marker, ^3H Mannitol, was included in these studies to ensure the monolayers were intact. […] Transport was monitored in the apical to basolateral (absorptive) and basolateral to apical (secretory) direction. The wells were incubated for 1 hour (unstirred) at 37° C. Samples were removed after the incubation period and analyzed by dual label LSC. The transport was calculated as percent flux/hr. [formula]
Transport measurements were made in controls, implemented in like fashion except no test compound was included.

[8] = cited from earlier work
[9] = clinical; details: human, serum, po, 1200 mg
Experimental: as §1, §2, §3, §4, §5

| SMILES | increase of mean AUC0-∞ for azithromycin ([1]; p=0.0001) [%] | increase of mean Cmax ([1]; p=0.0003) [%] | recovered radiolabel eliminated across the intestinal wall [2] [%] | interaction with (effect on plasma levels of) HIV protease inhibitors saquinavir, ritonavir, indinavir, nelfinavir [3] | elimination half-life [4] [h] | basolateral-to-apical azithromycin flux versus apical-to-basolateral flux [5] | oral bioavailability [6] [%] | substrate for the P-glycoprotein efflux transporter ([7]; Caco-2) | % Flux/hr B-A ([7]; human, Caco-2, 1 h, 0.4 μM) [% flux/hr] | % flux/hr A-B ([7]; human, Caco-2, 1 h, 0.4 μM) [% flux/hr] | effect on midazolam plasma levels ([8]; co-dosed with midazolam (Zimmerman et al.; Backman et al.)) | AUC(0-inf) [9] [ng·h/mL] | Cmax [9] [ng/mL] | increase in midazolam AUC ([8]; midazolam co-dosed with erythromycin (Zimmerman et al.)) [%] |
| --- | --- | --- | --- | --- | --- | --- | --- | --- | --- | --- | --- | --- | --- | --- |
| CC[C@H]1OC(=O)[C@H](C)[C@@H](O[C@H]2C[C@@](C)(OC)[C@@H](O)[C@H](C)O2)[C@H](C)[C@@H](O[C@@H]2O[C@H](C)C[C@H](N(C)C)[C@H]2O)[C@](C)(O)C[C@@H](C)CN(C)[C@H](C)[C@@H](O)[C@]1(C)O [Azithromycin, 9a-aza-9a-methyl-9deoxo-9a-homoerythromycin A] | 112 | 137 | 40 | does not interact | 69 | exceeded | 37 | is a substrate | 6.6 | 0.1 | no effect; also recorded: did not increase | 11500 | 889 |  |
| CC[C@H]1OC(=O)[C@H](C)[C@@H](O[C@H]2C[C@@](C)(OC)[C@@H](O)[C@H](C)O2)[C@H](C)[C@@H](O[C@@H]2O[C@H](C)C[C@H](N(C)C)[C@H]2O)[C@](C)(OC)C[C@@H](C)C(=O)[C@H](C)[C@@H](O)[C@]1(C)O [clarithromycin] |  |  |  | exhibit an interaction with all but nelfinavir |  |  |  |  |  |  |  |  |  |  |
| CC[C@H]1OC(=O)[C@H](C)[C@@H](O[C@H]2C[C@@](C)(OC)[C@@H](O)[C@H](C)O2)[C@H](C)[C@@H](O[C@@H]2O[C@H](C)C[C@H](N(C)C)[C@H]2O)[C@](C)(O)C[C@@H](C)C(=O)[C@H](C)[C@@H](O)[C@]1(C)O [erythromycin] |  |  |  |  |  |  |  |  |  |  |  |  |  | 380 |
